Laboratory results published in patent US20250281457A1, “TREATMENT OR PREVENTION OF DENGUE VIRAL INFECTION” (Janssen Pharmaceuticals, Inc., priority 2022, published 2025).
Read-outs that look alike come from different tables or passages of the source.

Test: Effect of food on plasma pharmacokinetics after single oral dose of SF2a/b (Example 2)
Type: in vivo, human
Conditions: for AUC(0-t) / AUC(0-inf) / Cmax / half-life / Tmax: both sexes, human, plasma, oral; for Tmax: read-out: tmax, Median
Protocol: The effect of food on the pharmacokinetics (PK) of Compound (a) was assessed in healthy participants after a single oral dose of SF2a/b, described in Example 1, administered at different dose levels in a randomized single dose, 2-period crossover study. The effect of food on the PK of Compound (a) was determined at 3 different dose levels (50 mg, 200 mg, and 800 mg) for a standardized breakfast; at one dose level (800 mg) for a high-fat, high-calorie breakfast; at two dose levels (200 mg and 800 mg) for a low-fat, low-calorie breakfast, as well as for a low-fat, high-calorie breakfast. 124 healthy adult participants (male and female, 18 to 55 years of age) were enrolled in this study. The volunteers were divided in six panels, which were organized as follows: • Panel […]: • Treatment D: A single 800-mg dose (4×200-mg tablets) of Compound (a) SF2b in fasted conditions. • Treatment E: A single 800-mg dose (4×200-mg tablets) of Compound (a) SF2b in fed conditions (standardized breakfast). • Treatments D and E (treatment sequence group 1 [n=8]: DE; treatment sequence group 2 [n=8]: ED). Panel 4, n=14: • Treatment F: A single 200-mg dose (1×200-mg tablet) of Compound (a) SF2b in fasted conditions. • Treatment G: A single 200-mg dose (1×200-mg tablet) of Compound (a) SF2b, in fed conditions (standardized breakfast). • Treatments F and G (treatment sequence group 1 [n=7]: FG; treatment sequence group 2 [n=7]: GF). Panel […]: • Treatment H: A single 50-mg dose (1×50-mg tablet) of Compound (a) SF2a in fasted conditions. • Treatment I: A single 50-mg dose (1×50-mg tablet) of Compound (a) SF2a in fed conditions (standardized breakfast). • Treatments H and I (treatment sequence group 1 [n=7]: HI; treatment sequence group 2 [n=7]: IH). Panel 6 (n=16): • Treatment J: single 800-mg dose (4×200-mg tablets) of Compound (a) administered as SF2b in fasted conditions. • Treatment K: single 800-mg dose (4×200-mg tablets) of Compound (a) administered as SF2b in fed conditions (high-fat, high-calorie breakfast). • Treatments J and K (treatment sequence group 1 [n=8]: JK; treatment sequence group 2 [n=8]: KJ). Panel 7 (n=32): • Treatment L: single 800-mg dose (4×200-mg tablets) of Compound (a) administered as SF2b in fed conditions (low-fat, low-calorie breakfast). • Treatment M: single 800-mg dose (4×200-mg tablets) of Compound (a) administered as SF2b in fed conditions (low-fat, high-calorie breakfast). • Treatment L (n=16) or Treatment M (n=16). Panel 8 (n=32): • Treatment N: single 200-mg dose (1×200-mg tablet) of Compound (a) administered as SF2b in fed conditions (low-fat, low-calorie breakfast). • Treatment O: single 200-mg dose (1×200-mg tablet) of Compound (a) administered as SF2b in fed conditions (low-fat, high-calorie breakfast). • Treatment N (n=16) or Treatment O (n=16). Tablets were administered orally, together with approximately 240 mL of non-carbonated water, in fasted or fed conditions. […] On day 1 of all treatments in each panel, the participants had fasted overnight for at least 10 hours before study drug intake. Intake of water was not allowed from 2 hours before and until 2 hours after study drug intake, except for the water used for study drug intake and breakfast. In case of intake in fed conditions, study drug was administered within 10 minutes after completing a standardized breakfast (Treatments E, G, and I), or a high-fat, high-calorie breakfast (Treatment K), a low-fat, low-calorie breakfast (Treatments L and N), or a low-fat, high-calorie breakfast (Treatments M and O). For treatments E, G, and I a standardized breakfast was served, consisting of (or its equivalent) 4 slices of bread, 2 slices of ham or cheese, butter, jelly, and 1 or 2 cups (up to 355 mL) of decaffeinated coffee or tea with milk and/or sugar, if desired (containing approximately: fat: 21 g, carbohydrates: 67 g, proteins: 19 g; total calories: 533 kcal). For treatment K in a high-fat, high-calorie breakfast was served. […]

[1] = 50 mg SF2a, standardized breakfast vs fasted
[2] = 200 mg SF2b, low-fat, high-calorie vs standardized breakfast
[3] = 200 mg SF2b, low-fat, low-calorie vs standardized breakfast
[4] = 200 mg SF2b, standardized breakfast vs fasted
[5] = 800 mg SF2b, high-fat, high-calorie breakfast vs fasted
[6] = 800 mg SF2b, low-fat, high-calorie vs standardized breakfast
[7] = 800 mg SF2b, low-fat, low-calorie vs standardized breakfast
[8] = 800 mg SF2b, standardized breakfast vs fasted

- AUClast, Geometric Mean Ratio Treatment I vs Treatment H [1]: 120.38%
- AUC∞, Geometric Mean Ratio Treatment I vs Treatment H [1]: 121.24%
- Cmax, Geometric Mean Ratio Treatment I vs Treatment H [1]: 132.83%
- AUClast, Geometric Mean Ratio Treatment O vs Treatment G [2]: 66.47%
- AUC∞, Geometric Mean Ratio Treatment O vs Treatment G [2]: 67.23%
- Cmax, Geometric Mean Ratio Treatment O vs Treatment G [2]: 72.81%
- AUClast, Geometric Mean Ratio Treatment N vs Treatment G [3]: 73.28%
- AUC∞, Geometric Mean Ratio Treatment N vs Treatment G [3]: 73.61%
- Cmax, Geometric Mean Ratio Treatment N vs Treatment G [3]: 72.54%
- AUClast, Geometric Mean Ratio Treatment G vs Treatment F [4]: 168.45%
- AUC∞, Geometric Mean Ratio Treatment G vs Treatment F [4]: 172.00%
- Cmax, Geometric Mean Ratio Treatment G vs Treatment F [4]: 176.07%
- AUClast, Geometric Mean Ratio Treatment K vs Treatment J [5]: 391.52%
- AUC∞, Geometric Mean Ratio Treatment K vs Treatment J [5]: 384.08%
- Cmax, Geometric Mean Ratio Treatment K vs Treatment J [5]: 409.01%
- AUClast, Geometric Mean Ratio Treatment M vs Treatment E [6]: 65.27%
- AUC∞, Geometric Mean Ratio Treatment M vs Treatment E [6]: 69.35%
- Cmax, Geometric Mean Ratio Treatment M vs Treatment E [6]: 60.73%
- AUClast, Geometric Mean Ratio Treatment L vs Treatment E [7]: 60.37%
- AUC∞, Geometric Mean Ratio Treatment L vs Treatment E [7]: 64.71%
- Cmax, Geometric Mean Ratio Treatment L vs Treatment E [7]: 60.56%
- AUClast, Geometric Mean Ratio Treatment E vs Treatment D [8]: 241.23%
- AUC∞, Geometric Mean Ratio Treatment E vs Treatment D [8]: 238.11%
- Cmax, Geometric Mean Ratio Treatment E vs Treatment D [8]: 277.77%
- relative bioavailability for AUClast, standardized breakfast compared to fasted (SF2a/b, 50 mg dose): 124%
- relative bioavailability for Cmax, standardized breakfast compared to fasted (SF2a/b, 50 mg dose): 133%
- relative bioavailability for AUClast, standardized breakfast compared to fasted (SF2a/b, 800 mg dose): 243%
- relative bioavailability for Cmax, standardized breakfast compared to fasted (SF2a/b, 800 mg dose): 278%
- exposure, high-fat, high-calorie breakfast compared to fasted conditions (SF2a/b, single dose 800 mg): approximately 4 times higher
- tlast, Median (Treatment D: single 800 mg (SF2b), fasted): 840.00 h
- tlast, Median (Treatment E: single 800 mg (SF2b), fed, standardized breakfast): 840.00 h
- tlast, Median (Treatment F: single 200 mg (SF2b), fasted): 840.00 h
- tlast, Median (Treatment G: single 200 mg (SF2b), fed, standardized breakfast): 840.00 h
- tlast, Median (Treatment H: single 50 mg (SF2a), fasted): 840.00 h
- tlast, Median (Treatment I: single 50 mg (SF2a), fed, standardized breakfast): 840.00 h
- AUC(0-t) (50 mg, 50 mg SF2a, fasted, linear mixed effects model (Table 5C), read-out: AUClast, Geometric Mean Treatment H): 17900 ng·h/mL
- AUC(0-inf) (50 mg, 50 mg SF2a, fasted, linear mixed effects model (Table 5C), read-out: AUC∞, Geometric Mean Treatment H): 18700 ng·h/mL
- Cmax (50 mg, 50 mg SF2a, fasted, linear mixed effects model (Table 5C), read-out: Cmax, Geometric Mean Treatment H): 193 ng/mL
- AUC(0-t) (50 mg, 50 mg SF2a, standardized breakfast, linear mixed effects model (Table 5C), read-out: AUClast, Geometric Mean Treatment I): 21600 ng·h/mL
- AUC(0-inf) (50 mg, 50 mg SF2a, standardized breakfast, linear mixed effects model (Table 5C), read-out: AUC∞, Geometric Mean Treatment I): 22700 ng·h/mL
- Cmax (50 mg, 50 mg SF2a, standardized breakfast, linear mixed effects model (Table 5C), read-out: Cmax, Geometric Mean Treatment I): 257 ng/mL
- AUC(0-t) (50 mg, Treatment H: single 50 mg (SF2a), fasted, read-out: AUClast, Geo. Mean): 18000 ng·h/mL
- AUC(0-t) (50 mg, Treatment H: single 50 mg (SF2a), fasted, read-out: AUClast, Mean): 19900 ng·h/mL
- AUC(0-t) (50 mg, Treatment H: single 50 mg (SF2a), fasted, read-out: AUClast, Median): 18500 ng·h/mL
- AUC(0-inf) (50 mg, Treatment H: single 50 mg (SF2a), fasted, read-out: AUC∞, Geo. Mean): 18800 ng·h/mL
- AUC(0-inf) (50 mg, Treatment H: single 50 mg (SF2a), fasted, read-out: AUC∞, Mean): 21000 ng·h/mL
- AUC(0-inf) (50 mg, Treatment H: single 50 mg (SF2a), fasted, read-out: AUC∞, Median): 18800 ng·h/mL
- Cmax (50 mg, Treatment H: single 50 mg (SF2a), fasted, read-out: Cmax, Geo. Mean): 195 ng/mL
- Cmax (50 mg, Treatment H: single 50 mg (SF2a), fasted, read-out: Cmax, Mean): 214 ng/mL
- Cmax (50 mg, Treatment H: single 50 mg (SF2a), fasted, read-out: Cmax, Median): 208 ng/mL
- half-life (50 mg, Treatment H: single 50 mg (SF2a), fasted, read-out: t1/2, term, Geo. Mean (converted)): 167 h
- half-life (50 mg, Treatment H: single 50 mg (SF2a), fasted, read-out: t1/2, term, Mean (converted)): 176 h
- half-life (50 mg, Treatment H: single 50 mg (SF2a), fasted, read-out: t1/2, term, Median (converted)): 162 h
- Tmax (50 mg, Treatment H: single 50 mg (SF2a), fasted): 7 h
- AUC(0-t) (50 mg, Treatment I: single 50 mg (SF2a), fed, standardized breakfast, read-out: AUClast, Geo. Mean): 21100 ng·h/mL
- AUC(0-t) (50 mg, Treatment I: single 50 mg (SF2a), fed, standardized breakfast, read-out: AUClast, Mean): 22900 ng·h/mL
- AUC(0-t) (50 mg, Treatment I: single 50 mg (SF2a), fed, standardized breakfast, read-out: AUClast, Median): 20400 ng·h/mL
- AUC(0-inf) (50 mg, Treatment I: single 50 mg (SF2a), fed, standardized breakfast, read-out: AUC∞, Geo. Mean): 22100 ng·h/mL
- AUC(0-inf) (50 mg, Treatment I: single 50 mg (SF2a), fed, standardized breakfast, read-out: AUC∞, Mean): 24600 ng·h/mL
- AUC(0-inf) (50 mg, Treatment I: single 50 mg (SF2a), fed, standardized breakfast, read-out: AUC∞, Median): 20800 ng·h/mL
- Cmax (50 mg, Treatment I: single 50 mg (SF2a), fed, standardized breakfast, read-out: Cmax, Geo. Mean): 257 ng/mL
- Cmax (50 mg, Treatment I: single 50 mg (SF2a), fed, standardized breakfast, read-out: Cmax, Mean): 288 ng/mL
- Cmax (50 mg, Treatment I: single 50 mg (SF2a), fed, standardized breakfast, read-out: Cmax, Median): 267 ng/mL
- half-life (50 mg, Treatment I: single 50 mg (SF2a), fed, standardized breakfast, read-out: t1/2, term, Geo. Mean (converted)): 174 h
- half-life (50 mg, Treatment I: single 50 mg (SF2a), fed, standardized breakfast, read-out: t1/2, term, Mean (converted)): 185 h
- half-life (50 mg, Treatment I: single 50 mg (SF2a), fed, standardized breakfast, read-out: t1/2, term, Median (converted)): 159 h
- Tmax (50 mg, Treatment I: single 50 mg (SF2a), fed, standardized breakfast): 6.5 h
- AUC(0-t) (200 mg, 200 mg SF2b, fasted, linear mixed effects model (Table 5B), read-out: AUClast, Geometric Mean Treatment F): 60500 ng·h/mL
- AUC(0-inf) (200 mg, 200 mg SF2b, fasted, linear mixed effects model (Table 5B), read-out: AUC∞, Geometric Mean Treatment F): 60500 ng·h/mL
- Cmax (200 mg, 200 mg SF2b, fasted, linear mixed effects model (Table 5B), read-out: Cmax, Geometric Mean Treatment F): 559 ng/mL
- AUC(0-t) (200 mg, 200 mg SF2b, fed, low-fat, high-calorie breakfast, read-out: AUClast, Geometric LS Means Treatment O): 65200 ng·h/mL
- AUC(0-inf) (200 mg, 200 mg SF2b, fed, low-fat, high-calorie breakfast, read-out: AUC∞, Geometric LS Means Treatment O): 69300 ng·h/mL
- Cmax (200 mg, 200 mg SF2b, fed, low-fat, high-calorie breakfast, read-out: Cmax, Geometric LS Means Treatment O): 700 ng/mL
- AUC(0-t) (200 mg, 200 mg SF2b, fed, low-fat, low-calorie breakfast, read-out: AUClast, Geometric LS Means Treatment N): 71900 ng·h/mL
- AUC(0-inf) (200 mg, 200 mg SF2b, fed, low-fat, low-calorie breakfast, read-out: AUC∞, Geometric LS Means Treatment N): 75800 ng·h/mL
- Cmax (200 mg, 200 mg SF2b, fed, low-fat, low-calorie breakfast, read-out: Cmax, Geometric LS Means Treatment N): 697 ng/mL
- AUC(0-t) (200 mg, 200 mg SF2b, fed, standardized breakfast (Tables 5E, 5G), read-out: AUClast, Geometric LS Means Treatment G): 98200 ng·h/mL
SMILES: COc1cc(NC(C(=O)c2c[nH]c3ccc(OC(F)(F)F)cc23)c2ccc(Cl)cc2OC)cc(S(C)(=O)=O)c1 (centres unmarked) [Compound (a)]
